Among the data in ChEMBL document CHEMBL3507680, “University of Dundee, Gates Library screen for HepG2 cell viability” are cytotoxicity values, retold here.

The nature of this data set: Human HepG2 cell viability assay in 384 well format. Format: toxicity, cell-based. Details: dose 125 nL, time 70.5 hour; concentration not given beside the values. The conditions noted are these: HepG2 cells, read-out: Inhibition.
As for `O=C(c1cccc2c1OCO2)N1CCCC(n2ccnc2)C1` (stereo not drawn), the cytotoxicity at 70.5 h is -10.3%.

`O=C(c1cnc(-c2cccs2)s1)N1CCCC(n2ccnc2)C1` (stereo not drawn): the cytotoxicity at 70.5 h is -8.31%.

Take `COCc1ccc(C(=O)N2CCN(CC(C)O)CC2)cc1` (stereo not drawn): the cytotoxicity at 70.5 h is -3.37%.

For `COCCCC(=O)N1CCC(Nc2cccnn2)CC1`, the cytotoxicity at 70.5 h is -10.4%.

With `Cc1cnn(CC2CCCN2C(=O)c2cccnc2-n2cncn2)c1` (stereo not drawn), the cytotoxicity at 70.5 h is -13.9%.

With `Cc1nn(C)c(Cl)c1C1CCCN1C(=O)c1cnc[nH]1` (stereo not drawn), the cytotoxicity at 70.5 h is -12.8%.

Take `Cc1nc(C2CCCN2C(=O)COCc2ccccc2)no1` (stereo not drawn): the cytotoxicity at 70.5 h is -10.2%.

`Cc1nn(C)c(Cl)c1C1CCCN1C(=O)c1ccc[nH]1` (stereo not drawn): the cytotoxicity at 70.5 h amounted to 9.9%.

On to `N#Cc1cccc(NS(=O)(=O)c2ccc(C(=O)O)cc2F)c1`, for which the cytotoxicity at 70.5 h was -13.8%.

On to `Cc1cc(NS(=O)(=O)c2ccc(C(=O)O)cc2F)ccc1F`, for which the cytotoxicity at 70.5 h is -10.7%.

On to `CN(CC(=O)N1CCCC1c1noc(C2CC2)n1)Cc1ccccc1` (stereo not drawn), for which the cytotoxicity at 70.5 h was -7.61%.

Turning to `CCn1nc2c(cc1=O)CN(CCCN1CCCC1=O)CC2`, the cytotoxicity at 70.5 h came to 16.8%.

As for `Cc1nccc(C(=O)NC(COCC(C)C)c2ccco2)n1` (stereo not drawn), the cytotoxicity at 70.5 h amounted to 19.4%.

Regarding `CCc1nccn1C1CCCN(C(=O)c2cnn3cccnc23)C1` (stereo not drawn), the cytotoxicity at 70.5 h stood at 27.7%.

As for `O=C(COc1ccc(C(F)(F)F)cc1)N1CCOCC1c1ncon1` (stereo not drawn), the cytotoxicity at 70.5 h was -6%.

`Cc1cc(C)n(CC2CCCN2C(=O)Cc2c(C)nn(C)c2C)n1` (stereo not drawn): the cytotoxicity at 70.5 h was -0.624%.

`O=C(COc1ccc(Cl)cc1)N1CCOCC1c1ncon1` (stereo not drawn): the cytotoxicity at 70.5 h was -1.69%.

Regarding `O=C(COc1cccc(Cl)c1)N1CCOCC1c1ncon1` (stereo not drawn), the cytotoxicity at 70.5 h was determined as 13.9%.

Consider `Cc1ccc(NC(=O)N(C)Cc2cnn(C)c2)c(C)c1`, for which the cytotoxicity at 70.5 h is -10.1%.

In the case of `CC(C(=O)NCc1ccc(N2CCCCCC2)nc1)S(C)(=O)=O` (stereo not drawn), the cytotoxicity at 70.5 h is -9.13%.

Take `CS(=O)(=O)c1ccc(CNc2nccc(C(F)(F)F)n2)cc1`: the cytotoxicity at 70.5 h was -1.16%.

Turning to `O=C(CCNc1ncccn1)N1CCN(c2nccs2)CC1`, the cytotoxicity at 70.5 h is -16.3%.

For `CC(C)C(NC(N)=O)C(=O)NCc1ccc(N2CCCC2)nc1` (stereo not drawn), the cytotoxicity at 70.5 h is -9.75%.

Consider `O=C(NCCNc1ncccn1)C1CC(=O)N(Cc2ccco2)C1` (stereo not drawn), for which the cytotoxicity at 70.5 h was -4.28%.

In the case of `CN(Cc1nnc2n1CCC2)C(=O)c1ccc2c(c1)OCO2`, the cytotoxicity at 70.5 h was -11.9%.

Turning to `Cc1ccc(NC(=O)NCCCn2nc3ccccn3c2=O)cc1`, the cytotoxicity at 70.5 h was -0.527%.

On to `Cc1cccc(NC(=O)Cn2nc3ccccn3c2=O)c1C`, for which the cytotoxicity at 70.5 h was -10.3%.

As to `O=C(NCCCn1nc2ccccn2c1=O)Nc1ccccc1`, the cytotoxicity at 70.5 h was 16.7%.

Regarding `CN(Cc1nnc2n1CCC2)C(=O)c1ccc2c(c1)CCO2`, the cytotoxicity at 70.5 h is -3.65%.

As to `O=C(NCCCn1nc2ccccn2c1=O)NCc1ccccc1`, the cytotoxicity at 70.5 h is -0.996%.

On to `Cc1csc(N2CCCN(C(=O)CCNc3ncccn3)CC2)n1`, for which the cytotoxicity at 70.5 h is -0.695%.

As to `CCCS(=O)(=O)NC(C)C(=O)NCc1ccc(N2CCN(C)CC2)nc1` (stereo not drawn), the cytotoxicity at 70.5 h is -2.17%.

As to `Cc1ccn2ncc(C(=O)N3CCCC(n4cccn4)C3)c2n1` (stereo not drawn), the cytotoxicity at 70.5 h was -0.891%.

Regarding `COCCOc1cc(C)ccc1NC(=O)N(C)Cc1cnn(C)c1`, the cytotoxicity at 70.5 h was -13.2%.

As to `COc1ccccc1CC(=O)N1CCCC1Cn1nc(C)cc1C` (stereo not drawn), the cytotoxicity at 70.5 h was -2.44%.

With `CC(C)C(=O)NCc1ccc(N2CCCC2)nc1`, the cytotoxicity at 70.5 h is -3.37%.

`Cc1cccc(C)c1OCC(=O)N1CCOCC1c1ncon1` (stereo not drawn): the cytotoxicity at 70.5 h is -2.55%.

Take `Cc1ccc(OCCC(=O)N2CCOCC2c2ncon2)cc1C` (stereo not drawn): the cytotoxicity at 70.5 h was -7.26%.

Consider `CC(C)c1nc(CN2CCCC(Cn3cncn3)C2)cs1` (stereo not drawn), for which the cytotoxicity at 70.5 h was determined as 29.1%.

Consider `Cn1cc(C2CCCN2CCC(=O)N2CCc3sccc3C2)cn1` (stereo not drawn), for which the cytotoxicity at 70.5 h was -4.52%.

As for `C1CCCN(CC2CCCN(Cc3noc(C4CC4)n3)C2)CC1` (stereo not drawn), the cytotoxicity at 70.5 h came to 0.15%.

Consider `C1CCCN(C2CCCN(Cc3noc(C4CC4)n3)C2)CC1` (stereo not drawn), for which the cytotoxicity at 70.5 h was -1.66%.

Consider `CCc1nc(CC(=O)N2CCCC2CN2CCCC2)cs1` (stereo not drawn), for which the cytotoxicity at 70.5 h was -1.93%.

In the case of `CCc1nnc(CN2CCCC(c3cc(C(F)(F)F)[nH]n3)C2)o1` (stereo not drawn), the cytotoxicity at 70.5 h was found to be 0.217%.

On to `COc1ccccc1-c1noc(CN2CCCC2Cn2cccn2)n1` (stereo not drawn), for which the cytotoxicity at 70.5 h worked out at 12.5%.

As for `CCc1noc(C(C)N2CCNCC2)n1` (stereo not drawn), the cytotoxicity at 70.5 h was 0.0476%.

On to `c1cnn(CC2CCCN2Cc2nc(-c3ccoc3)no2)c1` (stereo not drawn), for which the cytotoxicity at 70.5 h came to 28.2%.

With `O=C(CN1CCCC(Cn2cncn2)C1)NCCOc1ccccc1` (stereo not drawn), the cytotoxicity at 70.5 h is -2.13%.

In the case of `COc1ccc(CC(=O)N2CCCC(n3cc(C)cn3)C2)cc1F` (stereo not drawn), the cytotoxicity at 70.5 h is -2.2%.

For `Cc1cc(OCC(=O)N2CCCC(c3noc(C)n3)C2)no1` (stereo not drawn), the cytotoxicity at 70.5 h is -5.48%.

In the case of `Cc1ccc(-c2nc(CN3CCCC3Cn3cc(C)cn3)no2)cc1` (stereo not drawn), the cytotoxicity at 70.5 h turned out to be 23.6%.

For the compound `CN(C)CC1CN(Cc2coc(-c3cccs3)n2)CCO1` (stereo not drawn), the cytotoxicity at 70.5 h amounted to 1.06%.

For the compound `CC(Cn1cccn1)NC(=O)NCc1cccnc1OC1CCCC1` (stereo not drawn), the cytotoxicity at 70.5 h was -12.8%.

With `CC(Cn1cccn1)NC(=O)Cc1cccs1` (stereo not drawn), the cytotoxicity at 70.5 h is -6.09%.

Consider `CC(NC(=O)N1CCN(CCc2ccccc2)CC1)c1nncn1C` (stereo not drawn), for which the cytotoxicity at 70.5 h is -11%.

In the case of `COc1cc(C(=O)N2CCCS2(=O)=O)cc(Cl)c1OC`, the cytotoxicity at 70.5 h was -9.28%.

Take `COc1cc(C(=O)N2CCCS2(=O)=O)ccc1C`: the cytotoxicity at 70.5 h worked out at 18.4%.

With `CC(NC(=O)N1CCC(OCc2ccccc2)CC1)c1nncn1C` (stereo not drawn), the cytotoxicity at 70.5 h is -11.3%.

Regarding `CCn1cnnc1CNC(=O)N1CCC(C(=O)NC)CC1`, the cytotoxicity at 70.5 h is 1.9%.

As to `CC(NC(=O)c1cc(Br)c2c(c1)OCCO2)C(N)=O` (stereo not drawn), the cytotoxicity at 70.5 h was 16.6%.

`Cc1ccc(C(O)CNCCn2cccn2)cc1C` (stereo not drawn): the cytotoxicity at 70.5 h is -3.19%.

For `CNc1snc(C)c1C(=O)N1CCCC(n2nc(C)cc2C)C1` (stereo not drawn), the cytotoxicity at 70.5 h was 23.1%.

Turning to `CC(C)c1nc(C2CCCN2CC(=O)Nc2ccc(Cl)cn2)no1` (stereo not drawn), the cytotoxicity at 70.5 h was 19.2%.

As to `COc1cccc(CNc2cnn(C)c(=O)c2Cl)c1`, the cytotoxicity at 70.5 h was 3.02%.

As to `O=C(c1cc(Cl)c2c(c1)OCO2)N1CCCC(n2ccnc2)C1` (stereo not drawn), the cytotoxicity at 70.5 h is -8.93%.

Take `CCc1noc(C(C)N2CCN(Cc3nnc(C4CC4)o3)CC2)n1` (stereo not drawn): the cytotoxicity at 70.5 h is -14.9%.

As to `Cc1nc(C)n(CC2CN(CCOCC(F)(F)F)CCO2)n1` (stereo not drawn), the cytotoxicity at 70.5 h is -17.5%.

Consider `Cc1cc(NC(=O)CN2CCCC2c2noc(C(C)C)n2)n(C)n1` (stereo not drawn), for which the cytotoxicity at 70.5 h is -7.61%.

Regarding `c1ccc(-c2nc(CN3CCCC(Cn4cncn4)C3)co2)cc1` (stereo not drawn), the cytotoxicity at 70.5 h was 17.2%.

In the case of `Cc1cnn(CCNCc2ccccc2Oc2cccnc2)c1`, the cytotoxicity at 70.5 h was found to be 28.3%.

In the case of `Cc1cc(NC(=O)NCc2cccnc2OC(C)C)n(C)n1`, the cytotoxicity at 70.5 h is -6.35%.

For the compound `CCN(Cc1nc2c(cnn2C)c(=O)[nH]1)c1ccc(OC)c(OC)c1`, the cytotoxicity at 70.5 h was -7.15%.

For `Cc1nc(CNC(C)c2ccc(OCC(=O)NC3CC3)cc2)cs1` (stereo not drawn), the cytotoxicity at 70.5 h amounted to 3.83%.

For `CC(NCc1ccc(F)cc1)c1ccc(OCC(=O)NC2CC2)cc1` (stereo not drawn), the cytotoxicity at 70.5 h is 25.6%.

For `COc1ccc(CN(C)Cc2nc3c(cnn3C)c(=O)[nH]2)cc1OC`, the cytotoxicity at 70.5 h was -6.1%.

As for `Cc1cc(NC(=O)NCc2ccccn2)n(C)n1`, the cytotoxicity at 70.5 h is -6.19%.

In the case of `CC(Cc1c(F)cccc1F)NC(=O)Nc1cnn(CC(N)=O)c1` (stereo not drawn), the cytotoxicity at 70.5 h was -3.56%.

As for `O=C(Cc1ccccc1)N1CCN(Cc2noc(C3CC3)n2)CC1`, the cytotoxicity at 70.5 h was -1.85%.

For the compound `Cc1nnc2n1CCN(C(=O)COCCOc1ccccc1)C2`, the cytotoxicity at 70.5 h is -1.96%.

Turning to `Cc1cnn(CC(C)NCc2ccc(OCc3ccncc3)cc2)c1` (stereo not drawn), the cytotoxicity at 70.5 h worked out at 30.2%.

As to `CCN1CCC(NC(=O)CN2CCCC2Cn2cncn2)CC1` (stereo not drawn), the cytotoxicity at 70.5 h is -2.95%.

As for `Cc1cnn(CC2CCCCN2CC(=O)Nc2c(C)n[nH]c2C)c1` (stereo not drawn), the cytotoxicity at 70.5 h was -5.21%.

With `COc1ccc(C(=O)N2CCC(Nc3ccc(C)nn3)CC2)c(F)c1`, the cytotoxicity at 70.5 h was -6.97%.

On to `c1ccc(-n2cc(CN3CCCC(Cn4cncn4)C3)nn2)cc1` (stereo not drawn), for which the cytotoxicity at 70.5 h was -7.1%.

As for `Cc1cc(C(=O)N2CCc3nnc(N)cc3C2)c(C)n1C1CC1`, the cytotoxicity at 70.5 h was -12.1%.

On to `O=C(O)c1cc(S(=O)(=O)Nc2ccc(Cl)cc2)cc2c1OCCO2`, for which the cytotoxicity at 70.5 h is -10.1%.

Turning to `Cc1nc(C)n(CC2CN(c3ncnc4[nH]ccc34)CCO2)n1` (stereo not drawn), the cytotoxicity at 70.5 h stood at 1.75%.

`Cc1ncccc1CNCC1CCN(CC(O)c2ccccc2)CC1` (stereo not drawn): the cytotoxicity at 70.5 h is -1.3%.

For `Cc1nc(C2CCCN(C(=O)c3ccco3)C2)no1` (stereo not drawn), the cytotoxicity at 70.5 h was determined as 24%.

On to `Cc1cc(C(=O)N2CCc3nnc(N(C)C)cc3C2)c(C)n1C1CC1`, for which the cytotoxicity at 70.5 h is -3.63%.

As for `CC(C)(C)OC(=O)N1CCN(C(=O)c2sccc2C2CC2)CC1`, the cytotoxicity at 70.5 h was -10%.

With `CSc1ccsc1C(=O)N1CCN(CC(C)(C)O)CC1`, the cytotoxicity at 70.5 h is -0.902%.

In the case of `Cc1cnn(CC(C)NCc2csc(-c3cnn(C)c3)n2)c1` (stereo not drawn), the cytotoxicity at 70.5 h was found to be 51.9%.

`COC(=O)C(c1cc(F)ccc1F)N(C)C(=O)c1csnn1` (stereo not drawn): the cytotoxicity at 70.5 h was found to be 7.84%.

As for `COC(=O)N1CCCN(C(=O)NCc2ccc(Cl)s2)CC1`, the cytotoxicity at 70.5 h stood at 10.1%.

Take `CCn1cnnc1CNC(=O)c1cc(Cl)ccc1OC`: the cytotoxicity at 70.5 h is -4.87%.

Take `CCc1cccc(N2CCC(NC(=O)c3ccc(=O)[nH]n3)CC2)c1`: the cytotoxicity at 70.5 h was -0.843%.

`COCc1nc(C(=O)N2CCCC2c2ccccc2C)cs1` (stereo not drawn): the cytotoxicity at 70.5 h is -1.48%.

In the case of `Cc1ccoc1C(=O)NC1CCN(Cc2cccc3c2OCCO3)CC1`, the cytotoxicity at 70.5 h was determined as 6.48%.

With `COc1ccc(Br)c(C(=O)N2CCC(c3n[nH]c(C4CC4)n3)CC2)c1`, the cytotoxicity at 70.5 h worked out at 3.76%.

As to `O=C(CCCNc1ncccn1)N1CCCC(n2cccn2)C1` (stereo not drawn), the cytotoxicity at 70.5 h came to 34.1%.

Turning to `COCCN1CCC(CNC(=O)C2(c3cccc(C)c3)CC2)CC1`, the cytotoxicity at 70.5 h is -4.42%.

Regarding `CCC(=O)NC1CCN(c2cccc(CC)c2)CC1`, the cytotoxicity at 70.5 h was 38.9%.
